Test results from article PMC9346598 (The Journal of Poultry Science, 2022).
Blank lines part the entries; values can stand above or below the compound they belong to.

Legend:
chicken GPR120 (cGPR120) [1] = molecular target: T1, chicken GPR120 (cGPR120) (Gallus gallus, UniProt A0A8V0ZCZ6); assay: Fura-2 Ca2+ imaging in transfected HEK293T cells, Hill fit; assay type: cell-based
T1 sequence (A0A8V0ZCZ6 1-362): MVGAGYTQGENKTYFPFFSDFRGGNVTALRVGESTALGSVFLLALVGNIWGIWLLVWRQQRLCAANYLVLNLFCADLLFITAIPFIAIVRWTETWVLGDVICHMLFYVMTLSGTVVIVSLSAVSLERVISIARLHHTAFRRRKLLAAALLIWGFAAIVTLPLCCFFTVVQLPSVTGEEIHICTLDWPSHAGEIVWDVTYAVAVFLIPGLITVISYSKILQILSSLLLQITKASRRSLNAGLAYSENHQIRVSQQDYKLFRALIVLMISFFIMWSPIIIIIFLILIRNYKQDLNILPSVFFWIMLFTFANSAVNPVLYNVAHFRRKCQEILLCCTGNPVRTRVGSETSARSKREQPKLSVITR

chicken GPR120 (cGPR120) [2] = molecular target: T1, chicken GPR120 (cGPR120); assay: as above; assay type: cell-based; settings: agonist, pH 7.4, about 37 C

EC50 (chicken GPR120 (cGPR120) [1]): 1040 µM
Compound: CCCCC/C=C\C/C=C\C/C=C\C/C=C\CCCC(=O)O [AA, arachidonic acid]

Compound: CC/C=C\C/C=C\C/C=C\C/C=C\C/C=C\C/C=C\CCC(=O)O [DHA, docosahexaenoic acid]
Fura-2 Ca2+ imaging in transfected HEK293T cells, Hill fit (chicken GPR120 (cGPR120) [2]; 0.1-3 mmol/L in well, stock in ethanol): EPA and DHA activated cGPR120 in a dose-dependent manner

Compound: CC/C=C\C/C=C\C/C=C\C/C=C\C/C=C\CCCC(=O)O [EPA, eicosapentaenoic acid]
Fura-2 Ca2+ imaging in transfected HEK293T cells, Hill fit (chicken GPR120 (cGPR120) [2]; 0.1-7 mmol/L in well, stock in ethanol): EPA and DHA activated cGPR120 in a dose-dependent manner

Compound: CCCCC/C=C\C/C=C\CCCCCCCC(=O)O [LA, linoleic acid]
Fura-2 Ca2+ imaging in transfected HEK293T cells, Hill fit (chicken GPR120 (cGPR120) [2]; 1-10 mmol/L in well, stock in DMSO): cGPR120 cells were activated in a dose-dependent manner by LA
